Test results from paper PMC3236199, “Development of Derivatives of 3, 3′-Diindolylmethane as Potent Leishmania donovani Bi-Subunit Topoisomerase IB Poisons” (PLoS ONE, 2011).

Assays:
[1] = tested on: L. donovani topoisomerase I; assay: Immunoband depletion assay, topoisomerase I; type: cell-based, Leishmania donovani; settings: 20 µM, 6 h incubation, promastigotes
Procedure: Leishmania cells (3×10^7) were cultured in absence and presence of the drugs. Nuclear fractions were isolated as described. Briefly, cells were suspended in hypotonic buffer (10 mM Tris-HCl, pH 7.5, 1 mM EDTA, 0.1 mM EGTA, 1 mM PMSF, 1 mM benzamidine hydrochloride and 5 mM DTT) and homogenized. The homogenate was centrifuged for 10 min at 10,000 g. The pellets were washed and used as the source of nuclear fraction. Thereafter, the nuclear fractions were lysed with 1% SDS and subjected to SDS-PAGE (10%). The proteins were electrophoretically transferred to nitrocellulose membranes and immumobloting of immobilized proteins were carried out using a rabbit polyclonal antibody raised against LdTOP1S for topoisomerase I and ATPase domain of L. donovani topoisomerase II [8].
We have reported earlier that DIM induces topoisomerase I and not topoisomerase II-mediated cleavable complex formation in L. donovani. To investigate the ability of DIM derivatives to induce in vivo covalent complex formation between topoisomerase I and DNA in the Leishmania parasites we performed the immunoband depletion experiments with L. donovani promastigotes. Nuclear fractions were prepared from untreated as well as drug-treated promastigotes and subjected to SDS-PAGE. If topoisomerase I can form a covalent complex with genomic DNA inside the cells, then topoisomerase I-DNA cleavable complex cannot enter into the gel. […] The presence of topoisomerase I was detected by immunoblotting as described in ‘Materials and Methods’. It was observed that the immunoband of topoisomerase I disappeared in presence of 20 µM of DIM, DPDIM, DMDIM and DMODIM for 6 h incubation respectively (lanes 2–5). […] It should be mentioned here that topoisomerase I of Leishmania is a heterodimer and the catalytic site (SKXXY) is present in the small subunit of enzyme (LdTOP1S), which is involved in the formation of topoisomerase I-DNA covalent complex. So we have used the antibody raised against the small subunit of L. donovani topoisomerase I to study the immunoband depletion assay.
Figure 6 DIM-derivatives induce in vivo formation of topoisomerase-DNA cleavable complex within the cells. Stabilization of topoisomerase-I mediated cleavable complex was determined by immunoband depletion assay. Top panel: Immunoband depletion of L. donovani topoisomerase I, using an antibody raised against […]. Leishmanial cells were treated with 0.2% DMSO alone (lane 1), 20 µM each of DIM (lane 2), DPDIM (lane 3), DMDIM (lane 4) and DMODIM (lane 5) respectively. Lanes 6–9, preincubation with 20 µM DHBA before treatment with DIM, DPDIM, DMDIM and DMODIM respectively. Bottom panel: β-tubulin loading control.

[2] = tested on: F270L mutant topoisomerase I; assay: Equilibrium (duplex oligonucleotide) cleavage assay, F270L mutant; type: biochemical, Leishmania donovani; settings: 20 µM, with respect to cleavable complex formed without drug with wild type enzyme
Procedure: Cells were lysed and proteins were purified through Ni^+2-NTA agarose column (Qiagen) followed by phosphocellulose column chromatography (P11 cellulose, Whatman) as described. Finally the purified proteins LdTOP1L, LdTOP1L^F270L and LdTOP1S were stored at −70°C. Purified LdTOP1L and LdTOP1L^F270L were mixed with purified LdTOP1S separately and at a molar ratio of 1∶1 at a total protein concentration of 0.5 mg/ml in reconstitution buffer (50 mM potassium phosphate, pH 7.5, 0.5 mM DTT, 1 mM EDTA, 0.1 mM PMSF, 10% glycerol). The mixtures were dialyzed over night at 4°C and the dialyzed fractions were used for the plasmid relaxation activity.
The 25-mer oligonucleotide 1 (5′-GAAAAAAGACTT↓AGAAAAATTTTTA-3′) was 5′-end labeled with [γ^32P] ATP and annealed with oligonucleotide 2 (5′-[…]-3′) to make a duplex oligonucleotide containing a topoisomerase I binding motif as described. Cleavage assay was carried out using 20-fold molar excess of enzymes over duplex 25-mer DNA (enzymes, 0.2 µM; DNA, 10 nM). The reactions were carried out in standard assay condition in the absence or presence of drugs at 37°C for 30 min. All the reactions were stopped by addition of SDS to a final concentration of 2% (w/v), digested with 5 µl of 1 mg/ml trypsin and analyzed by 12% denaturing polyacrylamide gel followed by autoradiography. The amount of strand cleavage in the presence of drugs was determined by densitometry of the film as described.
The effect of DIM and its derivatives on L. donovani topoisomerase I was examined by plasmid DNA cleavage assay as described. The topoisomerase reaction has three general mechanistic steps: (i) binding of enzyme to the substrate DNA, (ii) single strand breakage and subsequent strand rotation through the break leading to change in linking number, and (iii) strand religation. The second step of reaction is the introduction of a single-stranded nick in the phosphodiester bond of the DNA, through which an intact strand is allowed to pass. […]

| SMILES | immunoband of topoisomerase I [1] | extent of cleavage [2] [%] |
| --- | --- | --- |
| c1ccc2c(Cc3c[nH]c4ccccc34)c[nH]c2c1 [DIM, 3, 3′-diindolyl methane, reference compound] | disappeared |  |
| Cc1[nH]c2ccccc2c1Cc1c(C)[nH]c2ccccc12 [DMDIM, 2,2′-dimethyl 3,3′-diindolyl methane] | disappeared | ~53 |
| COc1ccc2[nH]cc(Cc3c[nH]c4ccc(OC)cc34)c2c1 [DMODIM, 5,5′-dimethoxy 3,3′-diindolyl methane] | disappeared | ~50 |
| c1ccc(-c2[nH]c3ccccc3c2Cc2c(-c3ccccc3)[nH]c3ccccc23)cc1 [DPDIM, 2,2′-diphenyl 3,3′-diindolyl methane] | disappeared | 56 |
